“Also recorded” adds a separate entry of the source.
Assays:
Assay type in all cases: cell-based
[1] = test system: Mouse embryo fibroblasts NIH 3T3; experiment: MTT cell proliferation assay in NIH 3T3 fibroblasts
Experimental: Mouse embryo fibroblasts NIH 3T3 were cultivated in an incubator at 37° C. ([…], 5% CO2 and 60% humidity) while maintaining a density of 2×10^6 or 4×10^6 cells/ml in Dulbecco's modified Eagle's media (DMEM) supplemented with 10% fetal bovine serum (FBS) and 1% penicillin-streptomycin. Cell proliferation was measured by using MTT [3-(3,5-dimethyl-thiazol-2-yl)-2,5-diphenyltetrazolium bromide] assay. For MTT assay, the cells were plated in a 96-well plate at 2×10^3 cells/ml per well, and treated with a culture medium supplemented with 10% FBS. The cells were stabilized in the incubator for 24 hours, the culture medium supplemented with FBS was replaced by FBS-free DMEM, and the cells were treated with mixed rare earth elements of 10 μg, 1 μg, 100 ng, 10 ng, 1 ng, 100 pg, 10 pg and 1 pg, respectively, and individual rare earth elements of 10 ng. Then, the cells were cultivated for a given time, 50 μl per well of MTT (2 mg/l ml sterilized distilled water) was added thereto, and the mixture was reacted for 4 hours. The reaction mixture was treated with DMSO (dimethyl sulfoxide) and shaken for 30 minutes. Absorbance was measured at 540 nm using an ELISA reader (550, Bio-rad).

tyrosinase [2] = target: T1, tyrosinase (Homo sapiens, UniProt P14679); experiment: Activity of tyrosinase in Sk-mel-31 cells; settings: 10 μg to 1 pg, versus control group, FIG. 7
T1 sequence (P14679 19-529): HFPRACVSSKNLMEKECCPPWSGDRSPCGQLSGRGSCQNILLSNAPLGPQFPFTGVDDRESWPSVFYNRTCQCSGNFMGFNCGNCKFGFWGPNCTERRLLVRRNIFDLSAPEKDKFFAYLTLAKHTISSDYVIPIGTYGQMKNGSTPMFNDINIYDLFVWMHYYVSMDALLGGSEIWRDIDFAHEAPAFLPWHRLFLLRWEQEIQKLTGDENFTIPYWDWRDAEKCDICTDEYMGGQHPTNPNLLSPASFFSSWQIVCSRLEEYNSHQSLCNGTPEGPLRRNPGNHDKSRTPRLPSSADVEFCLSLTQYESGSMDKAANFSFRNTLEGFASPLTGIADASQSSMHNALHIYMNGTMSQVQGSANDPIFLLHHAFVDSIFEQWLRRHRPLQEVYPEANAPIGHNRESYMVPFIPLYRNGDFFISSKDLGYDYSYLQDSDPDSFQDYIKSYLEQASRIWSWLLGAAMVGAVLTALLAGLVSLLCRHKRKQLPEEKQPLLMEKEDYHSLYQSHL
Experimental: (§1) In order to evaluate the effect of promoting black hair formation, the activity of tyrosinase was measured in Sk-mel-31, a human melanoma cell, and B16F10, a mouse melanoma cell. The cells were cultivated in an incubator at 37° C. (5% CO2 and 60% relative humidity) while maintaining a density of 1×10^6 cells/ml for Sk-mel-31 and 2×10^5 cells/ml for B16F10 in RPMI-1640 medium (containing 1% penicillin-streptomycin and 10% fetal bovine serum). The cells were stabilized in the incubator for 24 hours, and the culture medium containing FBS was replaced by FBS-free RPMI-1640. The cells were treated with mixed rare earth elements of 10 μg, 1 μg, 100 ng, 10 ng, 1 ng, 100 pg, […] and 1 pg, respectively, and individual rare earth elements of 10 ng. In order to measure the activity of tyrosinase, the cells were cultivated for a given time, centrifuged (100×g) for 10 minutes, and harvested. […] The cells were placed in an ice bath for one hour, and centrifuged with 40,000×g at 4° C. for 20 minutes to obtain a cell extract. 130 μl of 5 mM L-DOPA (L-3,4-dihydroxyphenylalanine) and 120 μl of 25 mM MBTH (3-methyl-2-benzothiazolinone hydrazone) were added to 250 μl of an analysis buffer containing 100 mM potassium phosphate (pH 7.1), 4% N,N-dimethylformamide and 0.1% (v/v) Triton X-100, and reacted in a thermostat at 37° C. for 5 minutes, and then, 100 μg of the cell extract was added thereto, and further reacted for 2 hours. Then, 500 μl of 1 M perchloric acid was added thereto and the mixture was centrifuged with 9,000×g at room temperature for 20 minutes. Then, the supernatant was taken and absorbance was measured at 505 nm.

tyrosinase [3] = target: T2, tyrosinase (Mus musculus, UniProt P11344); experiment: Activity of tyrosinase in B16F10 cells; settings: 10 μg to 1 pg, versus control group, FIG. 8
T2 sequence (P11344 19-533): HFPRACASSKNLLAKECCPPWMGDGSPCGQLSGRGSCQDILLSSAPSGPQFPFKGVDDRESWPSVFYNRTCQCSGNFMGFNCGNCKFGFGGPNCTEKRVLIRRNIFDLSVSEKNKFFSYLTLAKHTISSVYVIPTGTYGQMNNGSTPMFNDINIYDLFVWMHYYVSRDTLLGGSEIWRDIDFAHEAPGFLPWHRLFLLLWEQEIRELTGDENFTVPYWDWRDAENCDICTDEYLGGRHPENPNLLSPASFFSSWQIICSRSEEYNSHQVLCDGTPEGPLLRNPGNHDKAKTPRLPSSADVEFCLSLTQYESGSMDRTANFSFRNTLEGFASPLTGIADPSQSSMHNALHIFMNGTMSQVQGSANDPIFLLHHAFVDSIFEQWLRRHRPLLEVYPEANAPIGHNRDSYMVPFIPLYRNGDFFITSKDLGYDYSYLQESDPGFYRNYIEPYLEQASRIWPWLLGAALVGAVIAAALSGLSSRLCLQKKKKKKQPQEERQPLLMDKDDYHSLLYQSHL
Experimental: as §1

tyrosinase [4] = experiment: Expression of tyrosinase in Sk-mel-31 cells by Western blotting; settings: human melanoma cell line; versus control group; FIG. 9
Experimental: (§2) Cells were cultivated according to the same process as in Experimental Example 6, and centrifuged (100×g) for 10 minutes to harvest the cells. In order to measure the expression of tyrosinase by Western blotting, 100 μg of the cell extract was resolved on 10% SDS-PAGE, transferred to NC, and then, blocked with TBS containing 5% skim milk. Then, it was reacted with a primary antibody diluted to 1:2,500 (monoclonal anti-tyrosine hydroxylase clone Th-2) and a secondary antibody diluted to 1:5,000 (anti-mouse IgG), respectively, and washed with TBS containing 0.2% Tween-20, and then, photosensitized on an X-ray film using an ECL detection kit. Then, OD values were graphed using an image analysis program of LabWork™ (version 4.4.00.0).

[5] = test system: B16F10, a mouse melanoma cell; experiment: Melanin production in B16F10 cells; settings: mouse melanoma cell line; versus control group; FIG. 10
Experimental: (§3) Cells were cultivated according to the same process as in Experimental Example 6, and centrifuged (100×g) for 10 minutes to harvest the cells. In order to measure the production of melanin, 200 μg of the cell extract was added to 1 N NaOH (total 1 ml), allowed to stand at room temperature for 30 minutes, and then, absorbance was measured at 400 nm.
(§4) In order to measure the production of melanin, the cells were cultivated and harvested according to the same process as that of Experimental Example 6, and the production of melanin was measured according to the same process as that of Experimental Example 8.

tyrosinase [6] = experiment: Expression of tyrosinase in B16F10 cells by Western blotting; settings: mouse melanoma cell line; versus control group; FIG. 9
Experimental: as §2

[7] = test system: Sk-mel-31, a human melanoma cell; experiment: Melanin production in Sk-mel-31 cells; settings: human melanoma cell line; versus control group; FIG. 10
Experimental: as §3, §4

Compound: [Ce] [Ce, cerium]
- cell proliferation compared with the non-treated group ([1]; 10 μg to 1 pg, FIG. 1): increased
- cell proliferation compared with the non-treated group ([1]; 10 μg to 1 pg, FIG. 1, maximum): up to 1.69 times
- cell proliferation compared with the non-treated group ([1]; each element of 10 ng, FIG. 2): most greatly increased
- tyrosinase activity (tyrosinase [2]): increased; also recorded: substantially the same effect as mixed rare earth elements; also recorded: most greatly increased
- tyrosinase activity (tyrosinase [3]): increased; also recorded: substantially the same effect as mixed rare earth elements; also recorded: most greatly increased
- expression of tyrosinase (tyrosinase [4]): substantially the same effect; also recorded: most greatly increased
- melanin production [5]: substantially the same effect; also recorded: most greatly increased

Compound: [Dy] [Dy, dysprosium]
- tyrosinase activity (tyrosinase [2]): substantially the same effect as mixed rare earth elements
- tyrosinase activity (tyrosinase [3]): substantially the same effect as mixed rare earth elements
- expression of tyrosinase (tyrosinase [4]): substantially the same effect
- expression of tyrosinase (tyrosinase [6]): substantially the same effect
- melanin production [7]: substantially the same effect
- melanin production [5]: substantially the same effect

Compound: [Er] [Er, erbium]
- tyrosinase activity (tyrosinase [2]): substantially the same effect as mixed rare earth elements
- tyrosinase activity (tyrosinase [3]): substantially the same effect as mixed rare earth elements
- expression of tyrosinase (tyrosinase [4]): substantially the same effect
- expression of tyrosinase (tyrosinase [6]): substantially the same effect
- melanin production [7]: substantially the same effect
- melanin production [5]: substantially the same effect

Compound: [Ho] [Ho, holmium]
- tyrosinase activity (tyrosinase [2]): substantially the same effect as mixed rare earth elements
- tyrosinase activity (tyrosinase [3]): substantially the same effect as mixed rare earth elements
- expression of tyrosinase (tyrosinase [4]): substantially the same effect
- expression of tyrosinase (tyrosinase [6]): substantially the same effect
- melanin production [7]: substantially the same effect
- melanin production [5]: substantially the same effect

Compound: [Pm] [Pm, promethium]
- tyrosinase activity (tyrosinase [2]): substantially the same effect as mixed rare earth elements
- tyrosinase activity (tyrosinase [3]): substantially the same effect as mixed rare earth elements
- expression of tyrosinase (tyrosinase [4]): substantially the same effect
- expression of tyrosinase (tyrosinase [6]): substantially the same effect
- melanin production [7]: substantially the same effect
- melanin production [5]: substantially the same effect

Compound: [Pr] [Pr, praseodymium]
- tyrosinase activity (tyrosinase [2]): substantially the same effect as mixed rare earth elements
- tyrosinase activity (tyrosinase [3]): substantially the same effect as mixed rare earth elements
- expression of tyrosinase (tyrosinase [4]): substantially the same effect
- expression of tyrosinase (tyrosinase [6]): substantially the same effect
- melanin production [7]: substantially the same effect
- melanin production [5]: substantially the same effect

Compound: [Sc] [Sc, scandium]
- tyrosinase activity (tyrosinase [2]): substantially the same effect as mixed rare earth elements
- tyrosinase activity (tyrosinase [3]): substantially the same effect as mixed rare earth elements
- expression of tyrosinase (tyrosinase [4]): substantially the same effect
- expression of tyrosinase (tyrosinase [6]): substantially the same effect
- melanin production [7]: substantially the same effect
- melanin production [5]: substantially the same effect

Compound: [Tb] [Tb, terbium]
- tyrosinase activity (tyrosinase [2]): substantially the same effect as mixed rare earth elements
- tyrosinase activity (tyrosinase [3]): substantially the same effect as mixed rare earth elements
- expression of tyrosinase (tyrosinase [4]): substantially the same effect
- expression of tyrosinase (tyrosinase [6]): substantially the same effect
- melanin production [7]: substantially the same effect
- melanin production [5]: substantially the same effect

Compound: [Tm] [Tm, thulium]
- tyrosinase activity (tyrosinase [2]): substantially the same effect as mixed rare earth elements
- tyrosinase activity (tyrosinase [3]): substantially the same effect as mixed rare earth elements
- expression of tyrosinase (tyrosinase [4]): substantially the same effect
- expression of tyrosinase (tyrosinase [6]): substantially the same effect
- melanin production [7]: substantially the same effect
- melanin production [5]: substantially the same effect

Compound: [Y] [Y, yttrium]
- tyrosinase activity (tyrosinase [2]): substantially the same effect as mixed rare earth elements
- tyrosinase activity (tyrosinase [3]): substantially the same effect as mixed rare earth elements
- expression of tyrosinase (tyrosinase [4]): substantially the same effect
- expression of tyrosinase (tyrosinase [6]): substantially the same effect
- melanin production [7]: substantially the same effect
- melanin production [5]: substantially the same effect

Compound: [Yb] [Yb, ytterbium]
- tyrosinase activity (tyrosinase [2]): substantially the same effect as mixed rare earth elements
- tyrosinase activity (tyrosinase [3]): substantially the same effect as mixed rare earth elements
- expression of tyrosinase (tyrosinase [4]): substantially the same effect
- expression of tyrosinase (tyrosinase [6]): substantially the same effect
- melanin production [7]: substantially the same effect
- melanin production [5]: substantially the same effect
